Inhibition and Ki data for 28 compounds are collected here from US6410585B1, “Inhibitors of protein tyrosine phosphatase” (priority 1997, dated 2002).

Like-named read-outs stand apart in the source and are kept apart here.

In the test the target is T1, rat PTP1 (Rattus norvegicus, UniProt P20417).
T1 construct: a C-terminal truncation of rat PTP1 (amino acid residues 1-322); GST (N, cleaved yes); made in house; host or cells: E. coli strain TG-1 (pGEX-2T)
T1 sequence (P20417 1-322): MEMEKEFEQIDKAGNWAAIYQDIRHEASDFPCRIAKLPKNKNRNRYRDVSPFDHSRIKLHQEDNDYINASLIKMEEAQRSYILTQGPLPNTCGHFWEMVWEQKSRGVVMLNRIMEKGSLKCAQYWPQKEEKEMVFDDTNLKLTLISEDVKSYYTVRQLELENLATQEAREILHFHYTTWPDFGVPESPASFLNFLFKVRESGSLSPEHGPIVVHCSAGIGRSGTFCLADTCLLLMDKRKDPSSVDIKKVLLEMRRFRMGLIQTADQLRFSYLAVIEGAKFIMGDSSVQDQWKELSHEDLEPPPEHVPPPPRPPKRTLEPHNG
Nature of the test: PTP1 assay, pNPP hydrolysis (rate of change in A405). The test is classed as biochemical. The text has this: PTP1 Assays: A construct, which consisted of a C-terminal truncation of rat PTP1 (amino acid residues 1-322) (cloned from a rat brain library) with an N-terminal glutathione S-transferase (GST) tag and an adjacent thrombin cleavage site, was inserted into vector plasmid pGEX-2T and transformed into E. coli strain TG-1 under the control of a lac promoter (K. L. Guan and J. E. Dixon (1991) Eukaryotic proteins expressed in Escherichia coli: an improved thrombin cleavage and purification procedure of fusion proteins with glutathione S-transferase. Analyt. Biochem. 192: 262-267). The GST-fusion protein was purified on a glutathione agarose affinity column, the GST tag was cleaved with thrombin, and the active enzyme was recovered for use in an assay to identify PTP inhibitors.
PTP1 activity is measured using either p-nitrophenol phosphate (pNPP) or a triphosphopeptide (that matches residues 1142 through 1153 of the β-subunit and the insulin receptor) as substrate in a 96-well microtiter plate format. An assay pH of 7.2 is used for standard assays (measured 405=9800 at pH 7.2).
Standard assays are conducted at room temperature in a total volume of 0.2 ml that contains Hepes buffer (50 mM, pH 7.2), NaCl (50 mM), EDTA (1 mM), DTT (1 mM), bovine serum albumin (1 mg/ml), pNPP (1 mM) and PTP1 (35 ng/ml). Compounds (2 μl of 10 mM solutions) are pipetted into wells of microtiter plates followed by 198 μl of premixed reaction mix (with PTP1 and pNPP added immediately before use). The rate of change in A405 is recorded for 60 min. Two wells on each plate contain DMSO controls and two wells contain sodium orthovanadate (1 mM) which inhibits PTP1-catalyzed hydrolysis of pNPP completely. Data are expressed as percent inhibition relative to the average of the DMSO controls measured on the same microtiter plate.

Setting [1] is: inhibition of pNPP-hydrolysis, compound concentration 1 μM, read-out: % Inhibition.
The mark [2] stands for this setting: inhibition of pNPP-hydrolysis, compound concentration 10 μM, read-out: % Inhibition.
Where [3] appears, read: inhibition of pNPP-hydrolysis, compound concentration 100 μM, read-out: % Inhibition.
Where [4] appears, read: Conc 1 uM, pNPP hydrolysis, Table 1, read-out: PTP1 Inhib % Inhib.
[5] abbreviates: Conc 10 uM, pNPP hydrolysis, Table 1, read-out: PTP1 Inhib % Inhib.
Setting [6] is: Conc 100 uM, pNPP hydrolysis, Table 1, read-out: PTP1 Inhib % Inhib.
Where [7] appears, read: Conc 1 uM, pNPP hydrolysis, Table 2, read-out: PTP1 Inhib PTP1N. % Inhib.
[8] abbreviates: Conc 10 uM, pNPP hydrolysis, Table 2, read-out: PTP1 Inhib PTP1N. % Inhib.
Setting [9] is: Conc 100 uM, pNPP hydrolysis, Table 2, read-out: PTP1 Inhib PTP1N. % Inhib.

As to `CC(C)(C)OC(=O)N[C@@H](Cc1ccccc1)C(=O)N[C@@H](Cc1ccc(OCC(=O)O)c(C(=O)O)c1)C(=O)NCCCO` [Example 157-21, 5-{(2S)-2-({(2S)-2-[(tert-Butoxycarbonyl)amino]-3-phenylpropanoyl}amino)-3-[(3-hydroxypropyl)amino]-3-oxopropyl}-2-(carboxymethoxy)benzoic Acid], the inhibition at 1 µM under setting [1] was found to be 24%. Further, the inhibition at 10 µM under setting [2] stood at 73%. The inhibition at 100 µM under setting [3] turned out to be 95%.

In the case of `CCCCCNC(=O)C(Cc1ccc(OC(COO)COO)cc1)NC(=O)Nc1ccc(C(=O)O)cc1` (stereo not shown), the inhibition at 1 µM under setting [4] was 8%. The inhibition at 10 µM under setting [5] came out at 34%. Also, the inhibition at 100 µM under setting [6] was found to be 81%.

Take `CCCCCNC(=O)[C@H](Cc1ccc(OC(C(=O)O)C(=O)O)cc1)NC(=O)CCc1ccc(CC(C(=O)O)C(=O)O)cc1`: the inhibition at 1 µM under setting [4] is 5%. Also, the inhibition at 10 µM under setting [5] came to 29%. The inhibition at 100 µM under setting [6] is 79%.

In the case of `O=C(O)COc1ccc(C[C@H](NS(=O)(=O)c2ccc(F)cc2F)C(=O)NCCCCc2ccc(Cl)cc2)cc1C(=O)O` [Example 156-1, 2-(carboxymethoxy)-5-((2S)-3-{[4-(4-chlorophenyl)butyl]amino}-2-{[(2,4-difluorophenyl)sulfonyl]amino}-3-oxopropyl)benzoic acid], the inhibition at 1 µM under setting [1] was 18%. In addition, the inhibition at 10 µM under setting [2] stood at 69%. The inhibition at 100 µM under setting [3] was found to be 95%.

In the case of `CCCCCNC(=O)[C@H](Cc1ccc(OC(C(=O)O)C(=O)O)cc1)NC(=O)CC1(CC(=O)O)CCCC1`, the inhibition at 1 µM under setting [4] is 2%. In addition, under setting [5], the inhibition at 10 µM was found to be 20%. Under setting [6], the inhibition at 100 µM worked out at 72%.

Turning to `O=C(O)CCC(=O)NC(Cc1ccc(OC(COO)COO)cc1)C(=O)NCc1ccc(C(=O)O)cc1` (stereo not shown), under setting [4], the inhibition at 1 µM was 3%. Besides, under setting [5], the inhibition at 10 µM amounted to 14%. Under setting [6], the inhibition at 100 µM was found to be 56%.

For the compound `CCCCCNC(=O)[C@H](Cc1ccc(OC(C(=O)O)C(=O)O)cc1)NC(=O)COCC(=O)O`, the inhibition at 1 µM under setting [4] amounted to 3%. For the same compound, under setting [5], the inhibition at 10 µM came out at 12%. Also, under setting [6], the inhibition at 100 µM is 53%.

What is called Ki is a measure of affinity in units of concentration, obtained from inhibition or displacement. With `CCCCCNC(=O)[C@H](Cc1ccc(OCC(=O)O)c(C(=O)O)c1)NC(=O)[C@H](Cc1ccccc1)NC(=O)Oc1ccccc1` [Example 158, 2-(Carboxymethoxy)-5-[(2S)-3-oxo-3-(pentylamino)-2-({(2S)-2-[(phenoxycarbonyl)amino]-3-phenylpropanoyl}amino)propyl]benzoic Acid], the Ki (calculated from IC50-values obtained from a dose-response curve using the inhibition assay) is 870 nM. For the same compound, the inhibition at 1 µM under setting [1] was 43%. The inhibition at 10 µM under setting [2] stood at 85%. Moreover, the inhibition at 100 µM under setting [3] amounted to 97%.

For the compound `CC(C)CCNC(=O)[C@H](Cc1ccc(OC(C(=O)O)C(=O)O)cc1)NC(=O)CCC(=O)O`, the inhibition at 1 µM under setting [4] amounted to 0%. The inhibition at 10 µM under setting [5] worked out at 6%. Also, under setting [6], the inhibition at 100 µM was 48%.

As to `CCCCCNC(=O)[C@H](Cc1ccc(OC(C(=O)O)C(=O)O)cc1)NC(=O)[C@H](CCC(=O)O)NC(=O)CCC(=O)O`, the inhibition at 1 µM under setting [4] amounted to 25%. Moreover, the inhibition at 10 µM under setting [5] was determined as 76%. In addition, under setting [6], the inhibition at 100 µM was 96%.

As to `CCCCCNC(=O)C(Cc1ccc(OC(=CCOO)COO)cc1)NC(=O)CCC(=O)O` (stereo not shown), the inhibition at 1 µM under setting [4] turned out to be 0%. Besides, the inhibition at 10 µM under setting [5] stood at 9%. Besides, the inhibition at 100 µM under setting [6] is 50%.

Take `CCOC(CNC(=O)[C@H](Cc1ccc(OC(C(=O)O)C(=O)O)cc1)NC(=O)CCC(=O)O)OCC`: under setting [4], the inhibition at 1 µM worked out at 0%. Moreover, under setting [5], the inhibition at 10 µM was found to be 7%. The inhibition at 100 µM under setting [6] came to 46%.

As to `CCCCCNC(=O)C(Cc1ccc(OC(COO)C(=O)O)cc1)NC(=O)NC(Cc1ccccc1)C(=O)O` (stereo not shown), under setting [7], the inhibition at 1 µM came out at 8%. Also, under setting [8], the inhibition at 10 µM stood at 57%. The inhibition at 100 µM under setting [9] was determined as 93%.

Consider `O=C(O)CCC(=O)NC(Cc1ccc(OC(COO)COO)cc1)C(=O)NCc1ccc2c(c1)OCO2` (stereo not shown), for which the inhibition at 1 µM under setting [4] came to 12%. In addition, the inhibition at 10 µM under setting [5] stood at 24%. The inhibition at 100 µM under setting [6] was determined as 63%.

Regarding `O=C(O)CCC(=O)N[C@@H](Cc1ccc(OC(C(=O)O)C(=O)O)cc1)C(=O)NCCN1CCCCC1`, the inhibition at 1 µM under setting [4] was 0%. Under setting [5], the inhibition at 10 µM stood at 2%. Moreover, the inhibition at 100 µM under setting [6] was found to be 23%.

Turning to `O=C(O)COc1ccc(C[C@H](NC(=O)c2cccnc2)C(=O)NCCCCc2ccccc2)cc1C(=O)O` [Example 154-11, 2-(carboxymethoxy)-5-{(2S)-3-oxo-3-[(4-phenylbutyl)amino]-2-[(3-pyridinylcarbonyl)amino]propyl}benzoic acid], the inhibition at 1 µM under setting [1] is 22%. Besides, under setting [2], the inhibition at 10 µM was determined as 73%. In addition, the inhibition at 100 µM under setting [3] worked out at 95%.

For `CCCCCNC(=O)C(Cc1ccc(OC(COO)COO)cc1)NC(=O)C(Cc1ccc(OCc2ccccc2)cc1)NC(=O)CCC(=O)O` (stereo not shown), the inhibition at 1 µM under setting [7] stood at 30%. In addition, the inhibition at 10 µM under setting [8] was found to be 80%. Moreover, under setting [9], the inhibition at 100 µM was determined as 98%.

`CCCCCNC(=O)[C@H](Cc1ccc(OC(C(=O)O)C(=O)O)cc1)NC(=O)C1CC1C(=O)O` (stereo partly shown): under setting [4], the inhibition at 1 µM came to 0%. Under setting [5], the inhibition at 10 µM came to 11%. Also, the inhibition at 100 µM under setting [6] was 57%.

Take `CCCCCNC(=O)[C@H](Cc1ccc(OC(C(=O)O)C(=O)O)cc1)NC(=O)CC(C)(C)CC(=O)O`: under setting [4], the inhibition at 1 µM was 0%. Under setting [5], the inhibition at 10 µM came out at 18%. Moreover, the inhibition at 100 µM under setting [6] was 67%.

Turning to `O=C(O)CCC(=O)NC(Cc1ccc(OC(COO)COO)cc1)C(=O)NCc1ccc(C(F)(F)F)cc1` (stereo not shown), under setting [4], the inhibition at 1 µM is 4%. The inhibition at 10 µM under setting [5] was found to be 15%. Under setting [6], the inhibition at 100 µM was determined as 66%.

For `CCCCCNC(=O)C(Cc1ccc(OC(COO)COO)cc1)NC(=O)NCC(=O)O` (stereo not shown), under setting [4], the inhibition at 1 µM was 4%. In addition, the inhibition at 10 µM under setting [5] was determined as 23%. Besides, the inhibition at 100 µM under setting [6] is 75%.

`O=C(O)COc1ccc(C[C@H](NC(=O)c2ccccc2)C(=O)NCCCCc2ccc(Cl)cc2)cc1C(=O)O` [Example 154-19, 5-((2S)-2-(benzoylamino)-3-{[4-(4-chlorophenyl)butyl]amino}-3-oxopropyl)-2-(carboxymethoxy)benzoic acid]: the inhibition at 1 µM under setting [1] came to 40%. Besides, under setting [2], the inhibition at 10 µM was 55%. For the same compound, under setting [3], the inhibition at 100 µM worked out at 98%.

Regarding `CCCCCNC(=O)[C@H](Cc1ccc(OCC(=O)O)c(C(=O)O)c1)NC(=O)c1cnc(Cl)c(Cl)c1` [Example 154-2, 2-(carboxymethoxy)-5-[(2S)-2-{[(5,6-dichloro-3-pyridinyl)carbonyl]amino}-3-oxo-3-(pentylamino)propyl]benzoic acid], the inhibition at 1 µM under setting [1] came to 23%. Further, the inhibition at 10 µM under setting [2] stood at 72%. The inhibition at 100 µM under setting [3] turned out to be 95%.

Regarding `CC(C)CC(CO)NC(=O)C(Cc1ccc(OC(COO)COO)cc1)NC(=O)CCC(=O)O` (stereo not shown), under setting [7], the inhibition at 1 µM worked out at 3%. Further, under setting [8], the inhibition at 10 µM stood at 15%. Moreover, under setting [9], the inhibition at 100 µM is 57%.

Regarding `CCCCCNC(=O)C(Cc1ccc(OC(COO)COO)cc1)NC(=O)N(CC(=O)O)Cc1ccccc1` (stereo not shown), the inhibition at 1 µM under setting [4] is 3%. Moreover, under setting [5], the inhibition at 10 µM is 25%. Also, under setting [6], the inhibition at 100 µM stood at 75%.

For `CCCCCNC(=O)C(Cc1ccc(OC(COO)COO)cc1)NC(=O)C(Cc1ccc(OC(C)(C)C)cc1)NC(=O)OC(C)(C)C` (stereo not shown), the inhibition at 1 µM under setting [7] came to 5%. Also, the inhibition at 10 µM under setting [8] was found to be 36%. Under setting [9], the inhibition at 100 µM amounted to 89%.

Regarding `CCCCCNC(=O)C(Cc1ccc(OC(COO)COO)cc1)NC(=O)NCCCCCC(=O)O` (stereo not shown), under setting [4], the inhibition at 1 µM was found to be 6%. Further, the inhibition at 10 µM under setting [5] was 18%. Also, under setting [6], the inhibition at 100 µM is 63%.

As to `CCCCCNC(=O)[C@H](Cc1ccc(CC(C(=O)O)C(=O)O)cc1)NC(=O)CCC(=O)O`, under setting [4], the inhibition at 1 µM was 0%. Further, under setting [5], the inhibition at 10 µM is 3%. Besides, under setting [6], the inhibition at 100 µM turned out to be 34%.
